Reference: patent US20250034167A1, “HETEROCYCLIC COMPOUNDS AND METHODS OF USE” (AMGEN INC., priority 2021, published 2025)

target: His-tagged KRAS G12D protein (Homo sapiens, UniProt P01116, G12D); assay: biochemical
Sequence (P01116 1-188 isoform P01116-2 G12D): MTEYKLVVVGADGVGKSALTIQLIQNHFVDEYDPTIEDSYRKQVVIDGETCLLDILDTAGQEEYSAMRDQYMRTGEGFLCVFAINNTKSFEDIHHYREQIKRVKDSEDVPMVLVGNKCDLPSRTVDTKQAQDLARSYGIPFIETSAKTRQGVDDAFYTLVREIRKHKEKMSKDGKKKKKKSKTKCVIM
Method: The plate was incubated for 30 minutes at room temperature. Biotinylated KRPep-2d substrate (Amgen) was diluted to nM in Assay Buffer and 2 μL was added to all wells and incubated for 1 hour at room temperature. Detection Reagent (0.4 nM LANCE Eu-W1024 Anti-6×His (Perkin Elmer AD0401), 5 nM streptavidin-d2 (Cisbio 610SADLA)) was prepared in Assay Buffer, then 4 µL was added to the plate and incubated for 1 hour at room temperature.

| SMILES | IC50 [nM] |
| --- | --- |
| CCc1c(F)ccc2cc(O)cc(-c3ncc4c(N5C6CCC5C(C)(O)CC6)nc(OC[C@@]56CCCN5C[C@H](F)C6)nc4c3F)c12 (stereo partly drawn) [Example 70, 8-(7-(8-Ethyl-7-fluoro-3-hydroxynaphthalen-1-yl)-8-fluoro-2-(((2R,7aS)-2-fluorotetrahydro-1H-pyrrolizin-7a(5H)-yl)methoxy)pyrido[4,3-d]pyrimidin-4-yl)-2-methyl-8-azabicyclo[3.2.1]octan-2-ol] | 32 |
| CCc1c(F)ccc2cc(O)cc(-c3ncc4c(N5CCCC(c6cnco6)C5)nc(OC[C@@]56CCCN5C[C@H](F)C6)nc4c3F)c12 (stereo partly drawn) [Example 108, 5-Ethyl-6-fluoro-4-(8-fluoro-2-(((2R,7aS)-2-fluorotetrahydro-1H-pyrrolizin-7a(5H)-yl)methoxy)-4-(3-(oxazol-5-yl)piperidin-1-yl)pyrido[4,3-d]pyrimidin-7-yl)naphthalen-2-ol] | 11 |
| CCc1c(F)ccc2cc(O)cc(-c3ncc4c(N5C[C@H]6COC[C@H]6C5)nc(OC[C@@]56CCCN5C[C@H](F)C6)nc4c3F)c12 [Example 122, 5-Ethyl-6-fluoro-4-(8-fluoro-2-(((2R,7aS)-2-fluorotetrahydro-1H-pyrrolizin-7a(5H)-yl)methoxy)-4-((3aR,6aS)-tetrahydro-1H-furo[3,4-c]pyrrol-5(3H)-yl)pyrido[4,3-d]pyrimidin-7-yl)naphthalen-2-ol] | 33 |
| CCc1c(F)ccc2cc(O)cc(-c3ncc4c(N5CC6CC(O)C5C6)nc(OC[C@@]56CCCN5C[C@H](F)C6)nc4c3F)c12 (stereo partly drawn) [Example 51, 2-(7-(8-Ethyl-7-fluoro-3-hydroxynaphthalen-1-yl)-8-fluoro-2-(((2R,7aS)-2-fluorotetrahydro-1H-pyrrolizin-7a(5H)-yl)methoxy)pyrido[4,3-d]pyrimidin-4-yl)-2-azabicyclo[2.2.1]heptan-6-ol] | 25 |
| CCc1c(F)ccc2cc(O)cc(-c3ncc4c(N5CCCC(C)(OC)C5)nc(OC[C@@]56CCCN5C[C@H](F)C6)nc4c3F)c12 (stereo partly drawn) [Example 148, 5-Ethyl-6-fluoro-4-(8-fluoro-2-(((2R,7aS)-2-fluorotetrahydro-1H-pyrrolizin-7a(5H)-yl)methoxy)-4-(3-methoxy-3-methylpiperidin-1-yl)pyrido[4,3-d]pyrimidin-7-yl)naphthalen-2-ol] | 38 |
| CCc1c(F)ccc2cc(O)cc(-c3ncc4c(N5CCCC(C#N)C5)nc(OC[C@@]56CCCN5C[C@H](F)C6)nc4c3F)c12 (stereo partly drawn) [Example 151, 1-(7-(8-Ethyl-7-fluoro-3-hydroxy-naphthalen-1-yl)-8-fluoro-2-(((2R,7aS)-2-fluorotetrahydro-1H-pyrrolizin-7a(5H)-yl)methoxy)pyrido[4,3-d]pyrimidin-4-yl)piperidine-3-carbonitrile] | 11 |
| CCc1c(F)ccc2cc(O)cc(-c3ncc4c(N5CC[C@H](C)[C@@H](O)C5)nc(OC[C@@]56CCCN5C[C@H](F)C6)nc4c3F)c12 [Example 35, (3R,4S)-1-(7-(8-Ethyl-7-fluoro-3-hydroxynaphthalen-1-yl)-8-fluoro-2-(((2R,7aS)-2-fluorotetrahydro-1H-pyrrolizin-7a(5H)-yl)methoxy)pyrido[4,3-d]pyrimidin-4-yl)-4-methyl-piperidin-3-ol] | 25 |
| CCc1c(F)ccc2cc(O)cc(-c3ncc4c(N5CCCC[C@H](O)C5)nc(OC[C@@]56CCCN5C[C@H](F)C6)nc4c3F)c12 [Example 130, (S)-1-(7-(8-Ethyl-7-fluoro-3-hydroxynaphthalen-1-yl)-8-fluoro-2-(((2R,7aS)-2-fluorotetrahydro-1H-pyrrolizin-7a(5H)-yl)methoxy)pyrido[4,3-d]pyrimidin-4-yl)azepan-3-ol] | 4 |
| CCc1c(F)ccc2cc(O)cc(-c3ncc4c(N5CCC[C@H]6NC(=O)C[C@H]65)nc(OC[C@@]56CCCN5C[C@H](F)C6)nc4c3F)c12 (relative stereo) [Example 63, rel-(3aR,7aR)-4-(7-(8-Ethyl-7-fluoro-3-hydroxynaphthalen-1-yl)-8-fluoro-2-(((2R,7aS)-2-fluorotetrahydro-1H-pyrrolizin-7a(5H)-yl)methoxy)pyrido[4,3-d]pyrimidin-4-yl)octahydro-2H-pyrrolo[3,2-b]pyridin-2-one] | 39 |
| CCc1c(F)ccc2cc(O)cc(-c3ncc4c(N5CCCC(C(C)(C)O)C5)nc(OC[C@@]56CCCN5C[C@H](F)C6)nc4c3F)c12 (stereo partly drawn) [Example 124, 5-Ethyl-6-fluoro-4-(8-fluoro-2-(((2R,7aS)-2-fluorotetrahydro-1H-pyrrolizin-7a(5H)-yl)methoxy)-4-(3-(2-hydroxypropan-2-yl)piperidin-1-yl)pyrido[4,3-d]pyrimidin-7-yl)naphthalen-2-ol] | 70 |
| CCc1c(F)ccc2cc(O)cc(-c3ncc4c(N5CCCC(C)(O)CC5)nc(OC[C@@]56CCCN5C[C@H](F)C6)nc4c3F)c12 (stereo partly drawn) [Example 142, 1-(7-(8-Ethyl-7-fluoro-3-hydroxynaphthalen-1-yl)-8-fluoro-2-(((2R,7aS)-2-fluorotetrahydro-1H-pyrrolizin-7a(5H)-yl)methoxy)pyrido[4,3-d]pyrimidin-4-yl)-4-methylazepan-4-ol] | 14 |
| CCc1c(F)ccc2cc(O)cc(-c3ncc4c(N5CCC5C(N)=O)nc(OC[C@@]56CCCN5C[C@H](F)C6)nc4c3F)c12 (stereo partly drawn) [Example 5, 1-(7-(8-Ethyl-7-fluoro-3-hydroxynaphthalen-1-yl)-8-fluoro-2-(((2R,7aS)-2-fluorotetrahydro-1H-pyrrolizin-7a(5H)-yl)methoxy)pyrido[4,3-d]pyrimidin-4-yl)azetidine-2-carboxamide] | 19 |
| CCC1CCCc2cc(O)cc(-c3ncc4c(N5CCC[C@@](C)(O)C5)nc(OC[C@@]56CCCN5C[C@H](F)C6)nc4c3F)c21 (single isomer, unassigned) [Example 174] | 335 |
| CCc1c(F)ccc2cc(O)cc(-c3ncc4c(N5CC6CC5CCC6O)nc(OCC56CCCN5C[C@H](F)C6)nc4c3F)c12 (stereo in doubt) [Example 155, 6-(7-(8-Ethyl-7-fluoro-3-hydroxy-naphthalen-1-yl)-8-fluoro-2-(((2R,7aS)-2-fluorotetrahydro-1H-pyrrolizin-7a(5H)-yl)methoxy)pyrido[4,3-d]pyrimidin-4-yl)-6-azabicyclo[3.2.1] octan-2-ol] | 33 |
| CCc1c(F)ccc2cc(O)cc(-c3ncc4c(N5CC(O)CC(C)(C)C5)nc(OC[C@@]56CCCN5C[C@H](F)C6)nc4c3F)c12 (some centres unmarked) [Example 32] | 9 |
| CCc1c(F)ccc2cc(O)cc(-c3ncc4c(N5CC6CCC(C(N)=O)(C6)C5)nc(OC[C@@]56CCCN5C[C@H](F)C6)nc4c3F)c12 (relative stereo) [Example 121, 3-(7-(8-Ethyl-7-fluoro-3-hydroxynaphthalen-1-yl)-8-fluoro-2-(((2R,7aS)-2-fluorotetrahydro-1H-pyrrolizin-7a(5H)-yl)methoxy)pyrido[4,3-d]pyrimidin-4-yl)-3-azabicyclo[3.2.1]octane-1-carboxamide] | 6 |
| CCc1c(F)ccc2cc(O)cc(-c3ncc4c(N5C[C@H]6OCC[C@H]65)nc(OC[C@@]56CCCN5C[C@H](F)C6)nc4c3F)c12 (relative stereo) [Example 21, rel-4-(4-((1R,5R)-2-Oxa-6-azabicyclo[3.2.0]heptan-6-yl)-8-fluoro-2-(((2R,7aS)-2-fluorotetrahydro-1H-pyrrolizin-7a(5H)-yl)methoxy)pyrido[4,3-d]pyrimidin-7-yl)-5-ethyl-6-fluoronaphthalen-2-ol] | 32 |
| CCc1c(F)ccc2cc(O)cc(-c3ncc4c(N5CC=CC(O)C5)nc(OC[C@@]56CCCN5C[C@H](F)C6)nc4c3F)c12 (stereo partly drawn) [Example 109, 1-(7-(8-Ethyl-7-fluoro-3-hydroxynaphthalen-1-yl)-8-fluoro-2-(((2R,7aS)-2-fluorotetrahydro-1H-pyrrolizin-7a(5H)-yl)methoxy)pyrido[4,3-d]pyrimidin-4-yl)-1,2,3,6-tetrahydropyridin-3-ol] | 12 |
| CCc1c(F)ccc2cc(O)cc(-c3ncc4c(N5CCC6OCCC6C5)nc(OC[C@@]56CCCN5C[C@H](F)C6)nc4c3F)c12 (relative stereo) [Example 62, 5-Ethyl-6-fluoro-4-(8-fluoro-2-(((2R,7aS)-2-fluorotetrahydro-1H-pyrrolizin-7a(5H)-yl)methoxy)-4-rel-((3aR,7aS)-hexahydrofuro[3,2-c]pyridin-5(4H)-yl)pyrido[4,3-d]pyrimidin-7-yl)naphthalen-2-ol] | 40 |
| CCc1c(F)ccc2cc(O)cc(-c3ncc4c(N5CC[C@H]6CNC(=O)[C@H]6C5)nc(OC[C@@]56CCCN5C[C@H](F)C6)nc4c3F)c12 (relative stereo) [Example 103, rel-(3aR,7aR)-5-(7-(8-Ethyl-7-fluoro-3-hydroxynaphthalen-1-yl)-8-fluoro-2-(((2R,7aS)-2-fluorotetrahydro-1H-pyrrolizin-7a(5H)-yl)methoxy)pyrido[4,3-d]pyrimidin-4-yl)octahydro-3H-pyrrolo[3,4-c]pyridin-3-one] | 4 |
| CCc1c(F)ccc2cc(O)cc(-c3ncc4c(N5CC6CC(O)C(C6)C5)nc(OC[C@@]56CCCN5C[C@H](F)C6)nc4c3F)c12 (single isomer, unassigned) [Example 25] | 11 |
| CCc1c(F)ccc2cc(O)cc(-c3ncc4c(N5C6CCC(O)C5CC6)nc(OC[C@@]56CCCN5C[C@H](F)C6)nc4c3F)c12 (stereo partly drawn) [Example 34, 8-(7-(8-Ethyl-7-fluoro-3-hydroxynaphthalen-1-yl)-8-fluoro-2-(((2R,7aS)-2-fluorotetrahydro-1H-pyrrolizin-7a(5H)-yl)methoxy)pyrido[4,3-d]pyrimidin-4-yl)-8-azabicyclo[3.2.1]octan-2-ol 2,2,2-trifluoroacetate] | 54 |
| CCc1c(F)ccc2cc(O)cc(-c3ncc4c(N5CCCC(c6c[nH]cn6)C5)nc(OC[C@@]56CCCN5C[C@H](F)C6)nc4c3F)c12 (stereo partly drawn) [Example 106, 4-(4-(3-(1H-Imidazol-4-yl)piperidin-1-yl)-8-fluoro-2-(((2R,7aS)-2-fluorotetrahydro-1H-pyrrolizin-7a(5H)-yl)methoxy)pyrido[4,3-d]pyrimidin-7-yl)-5-ethyl-6-fluoronaphthalen-2-ol] | 10 |
